We go through four compounds from ChEMBL document CHEMBL1201862, “PubChem BioAssay data set” (2004).

Activity calls are given as the source filed them. Bounds are passed on as bounds.

The target of experiment [1] is T1, Insulin-degrading enzyme (Homo sapiens, UniProt P14735).
T1 sequence (P14735 whole entry): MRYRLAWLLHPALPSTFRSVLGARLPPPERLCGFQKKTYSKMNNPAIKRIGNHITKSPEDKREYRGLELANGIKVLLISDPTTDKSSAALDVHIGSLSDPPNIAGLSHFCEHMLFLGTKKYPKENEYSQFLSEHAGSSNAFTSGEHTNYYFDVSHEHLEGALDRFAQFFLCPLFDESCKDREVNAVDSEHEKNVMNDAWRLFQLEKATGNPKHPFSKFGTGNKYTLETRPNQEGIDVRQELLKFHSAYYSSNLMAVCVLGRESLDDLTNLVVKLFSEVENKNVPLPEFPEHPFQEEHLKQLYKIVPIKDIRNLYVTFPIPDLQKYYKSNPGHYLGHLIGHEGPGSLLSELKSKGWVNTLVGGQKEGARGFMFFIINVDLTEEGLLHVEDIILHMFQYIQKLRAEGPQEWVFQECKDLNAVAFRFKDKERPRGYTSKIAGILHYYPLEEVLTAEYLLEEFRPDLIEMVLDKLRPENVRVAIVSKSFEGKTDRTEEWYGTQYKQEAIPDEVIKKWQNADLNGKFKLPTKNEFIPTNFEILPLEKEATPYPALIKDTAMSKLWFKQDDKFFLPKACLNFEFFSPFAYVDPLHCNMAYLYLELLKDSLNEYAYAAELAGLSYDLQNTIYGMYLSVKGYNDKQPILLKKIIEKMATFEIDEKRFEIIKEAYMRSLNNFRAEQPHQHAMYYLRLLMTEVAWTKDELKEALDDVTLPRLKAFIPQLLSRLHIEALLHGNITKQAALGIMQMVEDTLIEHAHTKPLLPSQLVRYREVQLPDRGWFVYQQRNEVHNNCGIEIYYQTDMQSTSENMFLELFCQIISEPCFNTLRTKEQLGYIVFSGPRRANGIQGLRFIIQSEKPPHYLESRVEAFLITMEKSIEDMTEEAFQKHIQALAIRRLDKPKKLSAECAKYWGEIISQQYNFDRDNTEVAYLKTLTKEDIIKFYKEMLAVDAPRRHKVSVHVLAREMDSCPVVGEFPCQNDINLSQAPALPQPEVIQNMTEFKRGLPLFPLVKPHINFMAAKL
The experiment can be described thus: recombinant IDE activation, cell-free – biochemical, fluorescence polarization, counter-screen for IDE activator project, dose response (AID 588681).

Experiment [2] addresses T1, Insulin-degrading enzyme. The experiment can be described thus: cellular IDE activation of Abeta substrate cleavage – fluorescence polarization, HEK cells, dose response (AID 588439). In kind it is functional, cell-based. (In general: In fluorescence polarisation assays a small probe gives low polarisation when free and higher when bound to something large.)
Experiment [3] has as its system HEK293. Briefly: membrane integrity loss in HEK cells – cell-based, fluorescence, cytotoxicity control for IDE activator project, dose response (AID 588440).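 Note: cytotoxicity by LDH release measuring loss of membrane integrity.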 Format: functional. To be noted: Homo sapiens.
Experiment [4] has as its system HEK293. The experiment can be described thus: optical interference in Abeta FP readout, dose response, artefact control for IDE activator project, biochemical, fluorescence polarization (AID 588442). In kind it is functional, cell-based. To be noted: Homo sapiens.
For experiment [5], the target named is T2, Sentrin-specific protease 8 (Homo sapiens, UniProt Q96LD8).
T2 sequence (Q96LD8 whole entry): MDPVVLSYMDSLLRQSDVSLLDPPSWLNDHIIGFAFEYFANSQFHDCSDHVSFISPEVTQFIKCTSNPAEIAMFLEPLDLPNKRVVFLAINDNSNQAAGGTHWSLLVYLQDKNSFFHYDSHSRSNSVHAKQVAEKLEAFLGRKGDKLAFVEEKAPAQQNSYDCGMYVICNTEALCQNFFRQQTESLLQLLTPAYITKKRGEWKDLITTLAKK
Briefly: inhibition of human SENP8 cleavage activity – biochemical, luminescence, SAR follow-up (AID 504501). Format: functional.

The target in another experiment is T3, Caspase-3 (Homo sapiens, UniProt P42574).
T3 sequence (P42574 whole entry): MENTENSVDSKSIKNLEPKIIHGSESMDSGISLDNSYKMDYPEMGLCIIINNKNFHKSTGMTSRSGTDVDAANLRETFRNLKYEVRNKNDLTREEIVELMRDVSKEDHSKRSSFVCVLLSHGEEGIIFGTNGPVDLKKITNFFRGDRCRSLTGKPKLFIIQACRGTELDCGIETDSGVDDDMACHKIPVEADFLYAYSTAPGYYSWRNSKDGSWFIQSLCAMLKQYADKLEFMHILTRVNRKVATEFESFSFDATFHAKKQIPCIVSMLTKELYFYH
Briefly: SAR Analysis of small molecule inhibitors of Sentrin-specific proteases (SENPs) using a Caspase-3 Selectivity assay. [Related pubchem assays (depositor defined):AID2540, AID2599, AID434973, AID489001]. In kind it is functional.

Experiment [6] deals with T4, Sentrin-specific protease 6 (Homo sapiens, UniProt Q9GZR1).
T4 sequence (Q9GZR1 whole entry): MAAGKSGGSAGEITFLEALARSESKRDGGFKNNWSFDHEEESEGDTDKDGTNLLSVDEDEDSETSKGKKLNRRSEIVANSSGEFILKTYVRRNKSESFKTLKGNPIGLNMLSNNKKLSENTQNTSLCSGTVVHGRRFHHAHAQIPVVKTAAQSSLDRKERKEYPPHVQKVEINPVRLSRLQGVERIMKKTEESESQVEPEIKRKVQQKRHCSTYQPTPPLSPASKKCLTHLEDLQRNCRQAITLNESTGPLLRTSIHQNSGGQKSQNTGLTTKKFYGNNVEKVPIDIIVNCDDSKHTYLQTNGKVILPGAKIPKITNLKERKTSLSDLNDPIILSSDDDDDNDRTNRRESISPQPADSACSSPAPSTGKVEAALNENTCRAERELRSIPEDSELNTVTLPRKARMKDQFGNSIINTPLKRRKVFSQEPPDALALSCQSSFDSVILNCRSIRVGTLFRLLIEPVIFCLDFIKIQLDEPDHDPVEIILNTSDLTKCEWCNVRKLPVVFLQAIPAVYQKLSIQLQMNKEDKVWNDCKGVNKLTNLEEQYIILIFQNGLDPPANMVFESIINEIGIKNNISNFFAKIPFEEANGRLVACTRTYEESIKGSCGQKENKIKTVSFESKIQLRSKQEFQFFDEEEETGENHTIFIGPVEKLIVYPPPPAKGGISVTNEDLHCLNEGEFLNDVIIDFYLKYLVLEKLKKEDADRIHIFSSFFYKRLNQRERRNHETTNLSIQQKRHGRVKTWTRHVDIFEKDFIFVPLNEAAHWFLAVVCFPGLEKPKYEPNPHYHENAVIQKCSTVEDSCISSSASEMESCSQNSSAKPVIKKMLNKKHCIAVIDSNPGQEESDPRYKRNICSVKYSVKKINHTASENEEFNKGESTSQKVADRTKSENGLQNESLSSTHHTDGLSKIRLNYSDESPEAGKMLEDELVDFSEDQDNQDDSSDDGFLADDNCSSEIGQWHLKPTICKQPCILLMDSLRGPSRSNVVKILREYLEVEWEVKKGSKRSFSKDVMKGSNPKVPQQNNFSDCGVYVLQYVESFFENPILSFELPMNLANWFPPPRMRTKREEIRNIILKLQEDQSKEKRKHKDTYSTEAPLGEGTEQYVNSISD
Briefly: SAR Analysis of small molecule inhibitors of Sentrin-specific protease 6 (SENP6) using a Luminescent assay. [Related pubchem assays (depositor defined):AID2582, AID2599]. Format: functional.

For experiment [7], the target named is T5, Sentrin-specific protease 7 (Homo sapiens, UniProt Q9BQF6).
T5 sequence (Q9BQF6 whole entry): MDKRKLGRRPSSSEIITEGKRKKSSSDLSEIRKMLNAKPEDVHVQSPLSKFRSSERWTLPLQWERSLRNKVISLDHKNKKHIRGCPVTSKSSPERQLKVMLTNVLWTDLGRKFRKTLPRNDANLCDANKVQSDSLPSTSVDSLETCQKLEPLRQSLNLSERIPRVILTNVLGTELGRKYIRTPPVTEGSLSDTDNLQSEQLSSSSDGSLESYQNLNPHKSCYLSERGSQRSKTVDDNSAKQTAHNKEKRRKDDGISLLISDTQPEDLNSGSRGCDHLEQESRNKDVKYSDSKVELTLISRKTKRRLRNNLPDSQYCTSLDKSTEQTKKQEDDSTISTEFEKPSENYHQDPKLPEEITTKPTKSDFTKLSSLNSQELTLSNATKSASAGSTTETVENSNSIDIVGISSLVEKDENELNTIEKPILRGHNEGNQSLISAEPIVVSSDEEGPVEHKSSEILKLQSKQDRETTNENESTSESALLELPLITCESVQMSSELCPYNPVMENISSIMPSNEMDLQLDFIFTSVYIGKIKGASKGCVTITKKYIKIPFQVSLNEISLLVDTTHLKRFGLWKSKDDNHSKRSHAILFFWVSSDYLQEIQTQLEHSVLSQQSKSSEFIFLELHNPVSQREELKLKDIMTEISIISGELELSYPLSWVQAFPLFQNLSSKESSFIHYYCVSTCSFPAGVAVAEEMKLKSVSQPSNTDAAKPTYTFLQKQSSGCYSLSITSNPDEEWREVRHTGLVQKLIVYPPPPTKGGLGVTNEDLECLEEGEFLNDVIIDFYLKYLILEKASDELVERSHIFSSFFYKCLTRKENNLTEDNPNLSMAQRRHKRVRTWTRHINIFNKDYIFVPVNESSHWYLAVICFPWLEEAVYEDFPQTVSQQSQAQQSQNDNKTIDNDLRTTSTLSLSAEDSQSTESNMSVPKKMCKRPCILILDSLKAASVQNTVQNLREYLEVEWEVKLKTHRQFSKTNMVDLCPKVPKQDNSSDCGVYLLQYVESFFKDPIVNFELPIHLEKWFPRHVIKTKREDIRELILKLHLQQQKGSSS
Briefly: inhibition of human SENP7 cleavage activity – biochemical, luminescence, SAR follow-up (AID 504497). Format: functional.

A further experiment concerns CHO. The experiment can be described thus: CHO cell viability loss, potency – luminescence, cytotoxicity control for TLR9-MyD88 binding inhibitor project, dose response (AID 588339).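 Note: CHO cells stably coexpressing TLR9 and MyD88 fusions from primary screen; compound exposure lasted 48 hours before viability readout.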 In kind it is functional, cell-based, hamster. To be noted: Cricetulus griseus.
The target in another experiment is Beta Lactamase (Pseudomonas aeruginosa, UniProt Q932Y6). The experiment can be described thus: BLA reporter interference, concentration series – BLA reporter cells, FRET fluorescence, artefact control for TLR9-MyD88 binding inhibitor project, dose response (AID 588341).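 Note: cell based assay in CHO-K1 cells stably expressing beta-lactamase.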 Format: cell-based.

As usually defined, the EC50 is the concentration giving half of the maximal effect. By IC50 is commonly meant the concentration that inhibits the measured activity by half.

Sequence of Beta Lactamase (Q932Y6 whole entry): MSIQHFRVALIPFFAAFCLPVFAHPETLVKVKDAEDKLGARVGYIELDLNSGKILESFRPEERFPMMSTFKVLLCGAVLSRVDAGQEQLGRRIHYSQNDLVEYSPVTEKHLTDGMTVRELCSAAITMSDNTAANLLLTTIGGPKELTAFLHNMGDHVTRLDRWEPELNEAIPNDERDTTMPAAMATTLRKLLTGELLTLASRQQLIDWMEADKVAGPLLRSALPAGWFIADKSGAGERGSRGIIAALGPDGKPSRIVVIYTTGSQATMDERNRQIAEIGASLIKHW

With `C=CCN1C(=O)c2ccc(C(=O)OCC(=O)N(CC)C3CCS(=O)(=O)C3)cc2C1=O` (centres undefined), the EC50 at Insulin-degrading enzyme [1], on Insulin-degrading enzyme [2] and in the experiment on HEK293 [4] was > 54.7 µM (inactive) each time. Also, in the experiment with HEK293 [3], the IC50 was > 89.2 µM (inactive).

On to `COc1ccc(C2C(C#N)=C(/N=C/N(C)C)Oc3c2c(C)nn3-c2ccccc2)cc1` (centres undefined), for which the IC50 (in experiment [5]; on Caspase-3; in [6]; in [7]) was > 99 µM (inactive) in each case.

As for `CCC(=O)c1ccc(/C=C/c2nc3ccccc3n2C)o1`, the IC50 in the experiment on CHO is > 49.7 µM (inactive); on Beta Lactamase, 5.11 µM (active).

Consider `Fc1cc(F)cc(-c2noc(/C=C/c3ccccc3)n2)c1`, for which the IC50 (in experiment [5]; at Caspase-3; in [6]; in [7]) was > 99 µM (inactive) each time.
